Measured values from paper PMC3639963, “A New Class of Small Molecule Inhibitor of BMP Signaling” (PLoS ONE, 2013).
Several values for one entry are separate records, joined by “and”; a condition that tells them apart may be missing. Equal entries are not always repeated.

Experiments:
Assay in all cases: Nanosyn kinase profiling
Format in all cases: biochemical
[1] = target: T1, ABL1 (Homo sapiens, UniProt P00519); conditions: for Percentage inhibition: 0.1 µM; for inhibition at 1 µM: 1 µM inhibitor
T1 construct: purchased Nanosyn (enzymatic panel); SGC in-house recombinant human kinases (DSF panel); Invitrogen (ALK1-6)
T1 sequence (P00519 whole entry): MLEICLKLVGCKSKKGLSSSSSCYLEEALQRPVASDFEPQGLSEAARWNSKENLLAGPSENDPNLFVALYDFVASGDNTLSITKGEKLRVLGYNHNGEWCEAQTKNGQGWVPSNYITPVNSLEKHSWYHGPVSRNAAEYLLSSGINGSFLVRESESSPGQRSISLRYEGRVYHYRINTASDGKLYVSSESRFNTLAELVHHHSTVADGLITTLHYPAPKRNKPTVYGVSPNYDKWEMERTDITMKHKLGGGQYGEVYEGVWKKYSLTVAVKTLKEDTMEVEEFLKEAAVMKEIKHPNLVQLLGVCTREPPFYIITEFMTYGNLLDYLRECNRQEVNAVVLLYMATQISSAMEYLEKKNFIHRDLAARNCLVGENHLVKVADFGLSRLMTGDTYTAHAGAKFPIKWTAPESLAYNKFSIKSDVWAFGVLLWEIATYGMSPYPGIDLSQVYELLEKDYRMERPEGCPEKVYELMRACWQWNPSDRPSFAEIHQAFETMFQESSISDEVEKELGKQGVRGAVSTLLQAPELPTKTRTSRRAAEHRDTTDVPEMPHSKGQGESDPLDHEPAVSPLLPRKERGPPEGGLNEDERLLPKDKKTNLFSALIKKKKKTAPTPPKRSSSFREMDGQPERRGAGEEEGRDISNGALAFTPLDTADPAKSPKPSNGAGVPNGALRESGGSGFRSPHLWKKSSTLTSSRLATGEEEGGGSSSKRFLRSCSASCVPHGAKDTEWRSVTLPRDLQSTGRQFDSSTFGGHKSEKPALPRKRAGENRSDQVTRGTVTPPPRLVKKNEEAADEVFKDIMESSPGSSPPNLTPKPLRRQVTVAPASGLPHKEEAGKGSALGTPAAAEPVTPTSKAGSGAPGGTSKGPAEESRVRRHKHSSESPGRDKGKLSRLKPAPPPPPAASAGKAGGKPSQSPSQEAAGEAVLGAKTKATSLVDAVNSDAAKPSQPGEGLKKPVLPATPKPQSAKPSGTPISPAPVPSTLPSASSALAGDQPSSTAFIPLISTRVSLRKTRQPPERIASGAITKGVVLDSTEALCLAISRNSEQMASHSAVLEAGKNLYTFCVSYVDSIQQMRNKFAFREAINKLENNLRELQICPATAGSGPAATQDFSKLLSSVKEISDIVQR
Outline: (§1)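 Percent inhibition of each kinase was measured with the inhibitor at 0.1 µM and at 1 µM, as part of a 200-kinase human selectivity panel.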

[2] = target: T2, CAMK2α (Homo sapiens, UniProt Q9UQM7); conditions: read-out: Percentage inhibition; for inhibition at 0.1 µM: 0.1 µM inhibitor; for inhibition at 1 µM: 1 µM inhibitor
T2 construct: purchased Nanosyn (enzymatic panel); SGC in-house recombinant human kinases (DSF panel); Invitrogen (ALK1-6)
T2 sequence (Q9UQM7 whole entry): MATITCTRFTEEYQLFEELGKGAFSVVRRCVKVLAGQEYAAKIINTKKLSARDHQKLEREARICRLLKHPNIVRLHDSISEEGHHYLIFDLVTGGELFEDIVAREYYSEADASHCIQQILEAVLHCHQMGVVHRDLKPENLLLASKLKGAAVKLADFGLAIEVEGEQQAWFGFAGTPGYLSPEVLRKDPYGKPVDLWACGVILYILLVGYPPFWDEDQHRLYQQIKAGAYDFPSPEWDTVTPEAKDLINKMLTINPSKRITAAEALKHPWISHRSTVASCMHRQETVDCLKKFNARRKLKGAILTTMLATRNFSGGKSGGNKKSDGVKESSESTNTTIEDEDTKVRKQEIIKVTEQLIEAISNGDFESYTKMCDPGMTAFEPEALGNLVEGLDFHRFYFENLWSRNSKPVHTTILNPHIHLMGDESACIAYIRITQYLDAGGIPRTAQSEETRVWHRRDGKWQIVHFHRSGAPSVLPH
Outline: as §1

[3] = target: T3, CK1γ3 (Homo sapiens, UniProt Q9Y6M4); conditions: read-out: Percentage inhibition; for inhibition at 0.1 µM: 0.1 µM inhibitor; for inhibition at 1 µM: 1 µM inhibitor
T3 construct: purchased Nanosyn (enzymatic panel); SGC in-house recombinant human kinases (DSF panel); Invitrogen (ALK1-6)
T3 sequence (Q9Y6M4 whole entry): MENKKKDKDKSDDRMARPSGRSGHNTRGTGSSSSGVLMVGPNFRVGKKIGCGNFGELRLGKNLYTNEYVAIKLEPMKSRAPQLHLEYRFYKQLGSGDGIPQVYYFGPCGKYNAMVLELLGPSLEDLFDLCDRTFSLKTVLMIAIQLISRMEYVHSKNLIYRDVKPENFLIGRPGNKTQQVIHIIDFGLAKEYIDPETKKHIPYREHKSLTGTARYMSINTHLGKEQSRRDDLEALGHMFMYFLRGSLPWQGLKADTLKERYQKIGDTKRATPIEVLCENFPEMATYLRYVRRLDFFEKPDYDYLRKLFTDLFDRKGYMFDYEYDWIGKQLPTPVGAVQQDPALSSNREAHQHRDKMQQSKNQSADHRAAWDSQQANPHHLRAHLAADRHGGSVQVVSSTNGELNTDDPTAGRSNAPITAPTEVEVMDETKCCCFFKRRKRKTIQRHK
Outline: as §1

[4] = target: T4, CLK3 (Homo sapiens, UniProt P49761); conditions: read-out: Percentage inhibition; for inhibition at 0.1 µM: 0.1 µM inhibitor; for inhibition at 1 µM: 1 µM inhibitor
T4 construct: purchased Nanosyn (enzymatic panel); SGC in-house recombinant human kinases (DSF panel); Invitrogen (ALK1-6)
T4 sequence (P49761 whole entry): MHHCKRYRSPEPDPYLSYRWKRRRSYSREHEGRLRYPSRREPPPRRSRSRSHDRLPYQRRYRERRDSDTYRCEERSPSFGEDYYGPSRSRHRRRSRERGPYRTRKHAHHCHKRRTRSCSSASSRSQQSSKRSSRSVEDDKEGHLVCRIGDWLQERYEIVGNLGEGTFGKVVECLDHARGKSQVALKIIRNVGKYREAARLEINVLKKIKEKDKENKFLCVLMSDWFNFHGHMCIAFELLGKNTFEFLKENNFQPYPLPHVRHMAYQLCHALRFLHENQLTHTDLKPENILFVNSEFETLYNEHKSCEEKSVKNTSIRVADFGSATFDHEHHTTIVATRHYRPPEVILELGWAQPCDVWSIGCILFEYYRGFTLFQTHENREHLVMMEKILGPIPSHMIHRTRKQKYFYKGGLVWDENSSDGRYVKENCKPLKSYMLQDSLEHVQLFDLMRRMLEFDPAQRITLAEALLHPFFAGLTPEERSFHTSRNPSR
Outline: as §1

[5] = target: T5, DYRK1B (Homo sapiens, UniProt Q9Y463); conditions: read-out: Percentage inhibition; for inhibition at 0.1 µM: 0.1 µM inhibitor; for inhibition at 1 µM: 1 µM inhibitor
T5 construct: purchased Nanosyn (enzymatic panel); SGC in-house recombinant human kinases (DSF panel); Invitrogen (ALK1-6)
T5 sequence (Q9Y463 whole entry): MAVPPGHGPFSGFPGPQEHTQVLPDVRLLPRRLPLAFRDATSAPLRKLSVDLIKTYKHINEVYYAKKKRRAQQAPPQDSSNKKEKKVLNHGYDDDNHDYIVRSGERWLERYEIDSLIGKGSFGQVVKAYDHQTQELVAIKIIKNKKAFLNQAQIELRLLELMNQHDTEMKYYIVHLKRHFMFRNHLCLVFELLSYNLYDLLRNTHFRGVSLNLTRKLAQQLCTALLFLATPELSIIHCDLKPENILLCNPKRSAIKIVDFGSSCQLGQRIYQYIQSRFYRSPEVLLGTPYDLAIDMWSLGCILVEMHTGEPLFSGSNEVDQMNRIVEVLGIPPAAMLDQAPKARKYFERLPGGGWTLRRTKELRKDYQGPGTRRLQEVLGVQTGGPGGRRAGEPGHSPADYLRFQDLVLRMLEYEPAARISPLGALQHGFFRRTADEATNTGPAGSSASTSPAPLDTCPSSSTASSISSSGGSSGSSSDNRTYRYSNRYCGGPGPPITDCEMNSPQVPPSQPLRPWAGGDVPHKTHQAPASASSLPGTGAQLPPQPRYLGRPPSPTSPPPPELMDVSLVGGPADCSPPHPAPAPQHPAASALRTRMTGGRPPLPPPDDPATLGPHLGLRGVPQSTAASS
Outline: as §1

[6] = target: T6, EPHB4 (Homo sapiens, UniProt P54760); conditions: read-out: Percentage inhibition; for inhibition at 0.1 µM: 0.1 µM inhibitor; for inhibition at 1 µM: 1 µM inhibitor
T6 construct: purchased Nanosyn (enzymatic panel); SGC in-house recombinant human kinases (DSF panel); Invitrogen (ALK1-6)
T6 sequence (P54760 16-987): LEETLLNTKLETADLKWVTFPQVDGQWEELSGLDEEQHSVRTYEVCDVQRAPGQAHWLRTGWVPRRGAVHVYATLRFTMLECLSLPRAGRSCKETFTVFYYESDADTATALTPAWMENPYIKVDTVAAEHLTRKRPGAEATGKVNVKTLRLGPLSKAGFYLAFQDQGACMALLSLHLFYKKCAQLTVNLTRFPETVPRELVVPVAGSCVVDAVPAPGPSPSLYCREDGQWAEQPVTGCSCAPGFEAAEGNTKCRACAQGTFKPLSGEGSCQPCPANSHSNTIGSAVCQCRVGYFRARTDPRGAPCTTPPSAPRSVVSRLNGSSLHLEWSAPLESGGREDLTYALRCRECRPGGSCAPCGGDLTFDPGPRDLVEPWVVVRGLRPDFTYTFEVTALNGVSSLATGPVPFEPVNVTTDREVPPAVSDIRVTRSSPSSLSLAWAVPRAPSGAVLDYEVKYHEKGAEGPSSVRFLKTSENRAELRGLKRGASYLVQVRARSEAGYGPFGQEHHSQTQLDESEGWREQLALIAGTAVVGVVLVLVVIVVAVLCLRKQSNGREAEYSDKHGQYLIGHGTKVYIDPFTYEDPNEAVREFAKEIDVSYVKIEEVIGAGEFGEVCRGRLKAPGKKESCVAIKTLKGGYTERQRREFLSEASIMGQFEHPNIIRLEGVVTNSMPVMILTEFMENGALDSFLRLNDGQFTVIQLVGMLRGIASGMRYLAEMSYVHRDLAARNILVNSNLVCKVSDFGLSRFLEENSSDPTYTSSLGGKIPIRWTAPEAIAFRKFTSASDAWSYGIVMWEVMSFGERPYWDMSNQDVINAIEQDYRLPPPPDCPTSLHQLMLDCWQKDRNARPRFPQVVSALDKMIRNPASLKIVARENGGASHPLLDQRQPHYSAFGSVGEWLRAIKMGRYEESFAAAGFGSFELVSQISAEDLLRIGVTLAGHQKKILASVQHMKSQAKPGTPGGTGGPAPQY
Outline: as §1

[7] = target: T7, INSR (Homo sapiens, UniProt P06213); conditions: read-out: Percentage inhibition; for inhibition at 0.1 µM: 0.1 µM inhibitor; for inhibition at 1 µM: 1 µM inhibitor
T7 construct: purchased Nanosyn (enzymatic panel); SGC in-house recombinant human kinases (DSF panel); Invitrogen (ALK1-6)
T7 sequence (P06213 28-1382): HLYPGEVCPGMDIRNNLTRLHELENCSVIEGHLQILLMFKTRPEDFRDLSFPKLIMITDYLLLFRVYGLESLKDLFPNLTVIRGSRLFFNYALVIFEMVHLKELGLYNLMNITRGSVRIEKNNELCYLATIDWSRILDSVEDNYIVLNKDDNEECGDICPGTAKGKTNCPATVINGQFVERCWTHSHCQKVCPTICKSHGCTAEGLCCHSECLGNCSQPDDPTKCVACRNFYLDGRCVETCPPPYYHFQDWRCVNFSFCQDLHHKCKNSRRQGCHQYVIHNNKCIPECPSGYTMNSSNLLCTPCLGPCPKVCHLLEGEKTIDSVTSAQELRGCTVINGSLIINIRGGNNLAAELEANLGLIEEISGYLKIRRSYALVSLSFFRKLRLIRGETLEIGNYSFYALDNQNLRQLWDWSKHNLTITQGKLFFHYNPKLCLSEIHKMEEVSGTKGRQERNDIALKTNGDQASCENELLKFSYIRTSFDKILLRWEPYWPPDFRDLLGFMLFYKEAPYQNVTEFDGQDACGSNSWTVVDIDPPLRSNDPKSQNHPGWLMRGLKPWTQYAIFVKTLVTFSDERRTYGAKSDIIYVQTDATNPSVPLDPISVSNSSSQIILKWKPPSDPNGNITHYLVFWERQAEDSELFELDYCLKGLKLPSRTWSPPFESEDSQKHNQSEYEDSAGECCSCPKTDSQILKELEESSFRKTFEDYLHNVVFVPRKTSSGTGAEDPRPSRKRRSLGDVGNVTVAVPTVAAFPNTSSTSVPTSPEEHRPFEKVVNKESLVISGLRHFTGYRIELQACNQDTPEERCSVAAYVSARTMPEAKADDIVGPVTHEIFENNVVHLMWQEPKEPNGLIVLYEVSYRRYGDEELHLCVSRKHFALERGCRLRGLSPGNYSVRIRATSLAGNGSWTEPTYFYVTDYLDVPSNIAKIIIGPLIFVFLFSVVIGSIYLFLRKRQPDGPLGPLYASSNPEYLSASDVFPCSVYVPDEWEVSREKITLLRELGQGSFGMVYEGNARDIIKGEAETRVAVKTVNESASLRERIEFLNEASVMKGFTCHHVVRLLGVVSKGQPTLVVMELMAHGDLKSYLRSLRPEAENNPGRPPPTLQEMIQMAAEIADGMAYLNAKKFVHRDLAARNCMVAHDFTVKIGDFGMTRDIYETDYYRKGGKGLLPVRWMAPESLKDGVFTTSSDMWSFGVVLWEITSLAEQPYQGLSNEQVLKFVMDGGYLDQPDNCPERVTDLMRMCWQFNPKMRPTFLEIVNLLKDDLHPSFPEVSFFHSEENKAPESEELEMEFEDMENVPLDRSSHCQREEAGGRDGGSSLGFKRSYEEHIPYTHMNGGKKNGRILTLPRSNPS
Outline: as §1

[8] = target: T8, ITK (Homo sapiens, UniProt Q08881); conditions: read-out: Percentage inhibition; for inhibition at 0.1 µM: 0.1 µM inhibitor; for inhibition at 1 µM: 1 µM inhibitor
T8 construct: purchased Nanosyn (enzymatic panel); SGC in-house recombinant human kinases (DSF panel); Invitrogen (ALK1-6)
T8 sequence (Q08881 1-620): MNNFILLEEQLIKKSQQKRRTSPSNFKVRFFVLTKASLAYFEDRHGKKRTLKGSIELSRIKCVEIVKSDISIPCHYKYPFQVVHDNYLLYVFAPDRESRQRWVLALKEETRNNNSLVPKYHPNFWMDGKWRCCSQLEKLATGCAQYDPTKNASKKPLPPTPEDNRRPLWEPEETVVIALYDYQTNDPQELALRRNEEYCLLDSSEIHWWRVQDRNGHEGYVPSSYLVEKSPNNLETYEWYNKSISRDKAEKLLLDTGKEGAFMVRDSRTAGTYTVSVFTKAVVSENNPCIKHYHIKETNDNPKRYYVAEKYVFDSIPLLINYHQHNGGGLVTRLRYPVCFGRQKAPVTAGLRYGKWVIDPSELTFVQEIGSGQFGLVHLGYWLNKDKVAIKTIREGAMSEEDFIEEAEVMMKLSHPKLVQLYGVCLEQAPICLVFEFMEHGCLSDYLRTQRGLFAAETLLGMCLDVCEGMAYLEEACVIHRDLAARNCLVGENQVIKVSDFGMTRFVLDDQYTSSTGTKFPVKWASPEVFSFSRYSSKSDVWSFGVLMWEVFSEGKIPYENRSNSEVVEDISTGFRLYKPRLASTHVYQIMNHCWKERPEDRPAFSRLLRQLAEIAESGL
Outline: as §1

[9] = target: T9, KDR (Homo sapiens, UniProt P35968); conditions: read-out: Percentage inhibition; for inhibition at 0.1 µM: 0.1 µM inhibitor; for inhibition at 1 µM: 1 µM inhibitor
T9 construct: purchased Nanosyn (enzymatic panel); SGC in-house recombinant human kinases (DSF panel); Invitrogen (ALK1-6)
Outline: as §1

[10] = target: T10, MARK3 (Homo sapiens, UniProt P27448); conditions: read-out: Percentage inhibition; for inhibition at 0.1 µM: 0.1 µM inhibitor; for inhibition at 1 µM: 1 µM inhibitor
T10 construct: purchased Nanosyn (enzymatic panel); SGC in-house recombinant human kinases (DSF panel); Invitrogen (ALK1-6)
Outline: as §1

[11] = target: T11, PIM2 (Homo sapiens, UniProt Q9P1W9); conditions: read-out: Percentage inhibition; for inhibition at 0.1 µM: 0.1 µM inhibitor; for inhibition at 1 µM: 1 µM inhibitor
T11 construct: purchased Nanosyn (enzymatic panel); SGC in-house recombinant human kinases (DSF panel); Invitrogen (ALK1-6)
Outline: as §1

[12] = target: T12, PKA (Homo sapiens, UniProt P17612); conditions: read-out: Percentage inhibition; for inhibition at 0.1 µM: 0.1 µM inhibitor; for inhibition at 1 µM: 1 µM inhibitor
T12 construct: purchased Nanosyn (enzymatic panel); SGC in-house recombinant human kinases (DSF panel); Invitrogen (ALK1-6)
Outline: as §1

[13] = target: T13, SRMS (Homo sapiens, UniProt Q9H3Y6); conditions: read-out: Percentage inhibition; for inhibition at 0.1 µM: 0.1 µM inhibitor; for inhibition at 1 µM: 1 µM inhibitor
T13 construct: purchased Nanosyn (enzymatic panel); SGC in-house recombinant human kinases (DSF panel); Invitrogen (ALK1-6)
T13 sequence (Q9H3Y6 whole entry): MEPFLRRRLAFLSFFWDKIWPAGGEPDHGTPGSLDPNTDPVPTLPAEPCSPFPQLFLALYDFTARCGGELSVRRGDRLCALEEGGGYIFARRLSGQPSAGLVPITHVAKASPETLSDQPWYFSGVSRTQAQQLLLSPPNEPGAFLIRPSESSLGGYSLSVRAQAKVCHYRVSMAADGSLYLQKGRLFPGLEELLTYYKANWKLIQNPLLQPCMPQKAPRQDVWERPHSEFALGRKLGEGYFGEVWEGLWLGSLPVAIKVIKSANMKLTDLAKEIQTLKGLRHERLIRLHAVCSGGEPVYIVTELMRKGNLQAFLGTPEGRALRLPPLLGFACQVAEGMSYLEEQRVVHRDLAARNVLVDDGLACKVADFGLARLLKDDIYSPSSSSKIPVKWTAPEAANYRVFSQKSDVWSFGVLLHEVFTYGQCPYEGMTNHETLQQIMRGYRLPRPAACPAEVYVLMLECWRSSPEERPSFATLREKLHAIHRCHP
Outline: as §1

[14] = read-out: Percentage inhibition

Row | SMILES | Percentage inhibition ([1]; 0.1 µM inhibitor) | inhibition at 1 µM [1, 14] [%] | inhibition at 0.1 µM [2] [%] | inhibition at 1 µM [2] [%] | inhibition at 0.1 µM [3] [%] | inhibition at 1 µM [3] [%] | inhibition at 0.1 µM [4] [%] | inhibition at 1 µM [4] [%] | inhibition at 0.1 µM [5] [%] | inhibition at 1 µM [5] [%] | inhibition at 0.1 µM [6] [%] | inhibition at 1 µM [6] [%] | inhibition at 0.1 µM [7] [%] | inhibition at 1 µM [7] [%] | inhibition at 0.1 µM [8] [%] | inhibition at 1 µM [8] [%] | inhibition at 0.1 µM [9] [%] | inhibition at 1 µM [9] [%] | inhibition at 0.1 µM [10] [%] | inhibition at 1 µM [10] [%] | other results
1 | c1ccc2c(-c3cnn4cc(-c5ccc(N6CCNCC6)cc5)cnc34)ccnc2c1 [LDN-193189] | > 50% | 84 | 0 | -8 | 2.3 | 5.5 | 0.5 | 2.6 | 7.1 | 41 | -1 | 6.6 | 3.8 | 4.5 | 0.9 | 3.6 | 19 | 69 | 11 | 63 | inhibition at 0.1 µM ([1]; 0.1 µM inhibitor, read-out: Percentage inhibition): 62%; inhibition at 0.1 µM [11]: 0%; inhibition at 1 µM [11]: 0%; inhibition at 0.1 µM [12]: 1.4%; inhibition at 1 µM [12]: 2.1%; inhibition at 0.1 µM [13]: -1%; inhibition at 1 µM [13]: 8.9%
2 | COc1cc(-c2cc(-c3cccc(O)c3)cnc2N)cc(OC)c1OC [K02288, 3-[6-amino-5-(3,4,5-trimethoxy-phenyl)-pyridin-3-yl]-phenol] | 79% and > 50% | 89 | -2 | -2 | 2.7 | 19 | 1.4 | 1.5 | 2.6 | 6 | 0 | 5.9 | -4 | 0.7 | 0 | 0 | 0.5 | 3.9 | 2.6 | 5.6 | inhibition at 0.1 µM [11]: 0.9%; inhibition at 1 µM [11]: 2.3%; inhibition at 0.1 µM [12]: 0.3%; inhibition at 1 µM [12]: 6.1%; inhibition at 0.1 µM [13]: 0.8%; inhibition at 1 µM [13]: 17%
